Earlier results, collected in patent US9642862B2, “Methods for treating chronic or unresolvable pain and/or increasing the pain threshold in a subject and pharmaceutical compositions for use therein” (White Mountain Pharma, Inc., priority 2010, dated 2017).

Tests used:
rats = details: formalin test, treatment with testosterone
chronic pain subjects = details: four subjects, adjunctive to primary opioid therapy, anecdotal
[1] = tested on: female-to-male transsexuals; details: doses at or above the male reference range
[2] = tested on: ovariectomized female rats

| Compound | pain responses (rats) | quality of life (chronic pain subjects) | side effects [1] | spinal cord enkephalin transcription [2] |
| --- | --- | --- | --- | --- |
| C[C@]12CC[C@H]3[C@@H](CCC4=CC(=O)CC[C@@]43C)[C@@H]1CC[C@@H]2O [testosterone] | decreased | improved | develop hirsutism and male-like increased risk for cardiovascular disease and diabetes |  |
| estrogen |  |  |  | increase |
